Test results published in patent US6180618A, “Propanolamine derivatives linked to bile acids, processes for their preparation, pharmaceuticals comprising these compounds, and their use” (Aventis Pharma Deutschland GmbH, priority 1998, dated 2001).

biological target: T1, Na+-dependent bile acid transportation system (intestinal bile acid transportation system in the terminal small intestine) (Oryctolagus cuniculus, UniProt Q28727); assay: Inhibition of Na+-dependent [3H]-taurocholate uptake in brush border membrane vesicles of the ileum of rabbits; assay type: biochemical; conditions: quotient of IC50Na of reference taurochenedeoxycholate (TCDC) and IC50Na of test substance; rabbit ileum brush border membrane vesicles; 50 μM taurocholate
T1 construct: from tissue; host or cells: brush border membrane vesicles from the terminal 7/10 of the small intestine (ileum) of male New Zealand rabbits
T1 sequence (Q28727 1-347): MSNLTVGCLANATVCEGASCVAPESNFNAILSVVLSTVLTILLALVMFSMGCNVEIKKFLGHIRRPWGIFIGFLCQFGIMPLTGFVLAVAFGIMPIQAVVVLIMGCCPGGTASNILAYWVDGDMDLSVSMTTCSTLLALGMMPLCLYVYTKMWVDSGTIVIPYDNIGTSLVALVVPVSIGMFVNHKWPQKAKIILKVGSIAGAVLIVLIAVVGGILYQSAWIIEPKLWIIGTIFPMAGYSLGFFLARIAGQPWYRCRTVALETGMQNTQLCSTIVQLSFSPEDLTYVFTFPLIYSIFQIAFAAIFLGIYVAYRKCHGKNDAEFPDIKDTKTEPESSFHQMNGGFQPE
Protocol: Biological testing of the compounds of the present invention was carried out by determining the inhibition of [^3 H]-taurocholate uptake in brush border membrane vesicles of the ileum of rabbits. The inhibition test was carried out as follows:
1. Preparation of brush border membrane vesicles from the ileum of rabbits
Preparation of brush border membrane vesicles from the intestinal cells of the small intestine was carried out by the so-called Mg^2+ precipitation method. Male New Zealand rabbits (2 to 2.5 kg of body weight) were sacrificed by intravenous injection of 0.5 ml of T61®, an aqueous solution of 2.5 mg of tetracaine HCl, 100 mg of embutramide and 25 mg of mebezonium iodide. The small intestine was removed and rinsed with ice-cold physiological saline solution. The terminal 7/10 of the small intestine (measured in the oral-rectal direction, i.e., the terminal ileum, which contains the active Na^+ -dependent bile acid transportation system) was used for preparation of the brush border membrane vesicles. The intestines were frozen at -80° C. in plastic bags under nitrogen.
For preparation of the membrane vesicles, the frozen intestines were thawed at 30° C. in a water-bath. The mucosa was scraped off and suspended in 60 ml of ice-cold 12 mM TRIS/HCl buffer (pH 7.1)/300 mM mannitol, 5 mM EGTA/10 mg/l of phenylmethylsulfonyl fluoride/1 mg/l of trypsin inhibitor from soybeans (32 U/mg)/0.5 mg/l of trypsin inhibitor from the bovine lung (193 U/mg)/5 mg/l of bacitracin. After dilution to 300 ml with ice-cold distilled water, the mixture was homogenized with an Ultraturrax (18-rod, IKA Werk Staufen, Germany) at 75% of the maximum for 3 minutes, while cooling with ice. After addition of 3 ml of 1 M MgCl2 solution (final concentration 10 mM), the mixture was left to stand at 0° C. for exactly 1 minute. By addition of Mg^2+, the cell membranes aggregated, and precipitated with the exception of the brush border membranes. After centrifugation at 3000× g (5000 rpm, SS-34 rotor) for 15 minutes, the precipitate was discarded and the supernatant, which contained the brush border membrane, was centrifuged at 48,000× g (20,000 rpm, SS-34 rotor) for 30 minutes. The supernatant was discarded and the precipitate was rehomogenized in 60 ml of 12 mM TRIS/HCl buffer (pH 7.1)/60 mM mannitol, 5 mM EGTA with a Potter Elvejhem homogenizer (Braun, Melsungen, 900 rpm, 10 strokes). After addition of 0.1 ml of 1 M MgCl2 solution and an incubation time of 15 minutes at 0° C., the mixture was centrifuged again at 3000× g for 15 minutes. The supernatant was then centrifuged again at 48,000× g (20,000 rpm, SS-34 rotor) for 30 minutes. The precipitate was taken up in 30 ml of 10 mM TRIS/HEPES buffer (pH 7.4)/300 mM mannitol and resuspended homogeneously by 20 strokes in a Potter Elvejhem homogenizer at 1000 rpm. After centrifugation at 48,000× g (20,000 rpm, SS-34 rotor) for 30 minutes, the precipitate was taken up in 0.5 to 2 ml of TRIS/HEPES buffer (pH 7.4)/280 mM mannitol (final concentration 20 mg/ml) and resuspended with the aid of a tuberculin syringe with a 27-gauge needle. The vesicles were either used directly for transportation studies after the preparation or stored at -196° C. in 4 mg portions in liquid nitrogen.
2. Inhibition of the Na^+ -dependent [^3 H]taurocholate uptake in brush border membrane vesicles of the ileum
The uptake of substrates in the brush border membrane vesicles described above was determined by means of the so-called membrane filtration technique. 10 μl of the vesicle suspension (100 μg of protein) were pipetted as drops onto the wall of a polystyrene incubation tube (11×70 mm), which contained the incubation medium with the corresponding ligands (90 μl). […]

Q: With `CC(CCC(=O)O)C1CCC2C3C(O)CC4CC(NC(=O)CCC(=O)NC(CCCCNC(=O)OC(C)(C)C)C(=O)Nc5ccccc5C(Nc5ccccn5)C(c5ccccn5)C(O)c5ccccc5)CCC4(C)C3CC(O)C12C` (centres unmarked) [Example 1j] as the compound, how does the “IC5ONa -TCDC (μmol)/ IC50Na -compound (μmol)” value (“IC5ONa -TCDC (μmol)/ IC50Na” below) read?
A: 1.51

Q: For `C[C@H](CCC(=O)Nc1ccccc1[C@@H](Nc1ccccn1)[C@H](c1ccccn1)[C@H](O)c1ccccc1)[C@H]1CC[C@H]2[C@@H]3[C@H](O)C[C@@H]4C[C@H](O)CC[C@]4(C)[C@H]3C[C@H](O)[C@]12C` [Example 4], which “IC5ONa -TCDC (μmol)/ IC50Na” value is on record?
A: 0.50

Q: With `C[C@H](CCC(=O)O)[C@H]1CC[C@H]2[C@@H]3[C@H](O)C[C@@H]4C[C@@H](NC(=O)CCC(=O)Nc5ccc(C(Nc6ccccn6)C(c6ccccn6)C(O)c6ccccc6)cc5)CC[C@]4(C)[C@H]3C[C@H](O)[C@]12C` (some centres unmarked) [Example 7] as the compound, how does the “IC5ONa -TCDC (μmol)/ IC50Na” value read?
A: 0.15

Q: With `CC(CCC(=O)O)C1CCC2C3C(O)CC4CC(NC(=O)CCC(=O)NC(CCCCNC(=O)OC(C)(C)C)C(=O)Nc5ccccc5C(Nc5ccccn5)C(c5ccccn5)C(O)c5ccccc5)CCC4(C)C3CC(O)C12C` (centres unmarked) [Example 12] as the compound, how does the “IC5ONa -TCDC (μmol)/ IC50Na” value read?
A: 2.58

Q: For `CC(CCC(=O)NCCS(=O)(=O)O)C1CCC2C3C(O)CC4CC(NC(=O)CCC(=O)NC(CCCCNC(=O)OC(C)(C)C)C(=O)Nc5ccccc5C(Nc5ccccn5)C(c5ccccn5)C(O)c5ccccc5)CCC4(C)C3CC(O)C12C` (centres unmarked) [Example 1k], which “IC5ONa -TCDC (μmol)/ IC50Na” value is on record?
A: 1.59

Q: `COC(=O)CCC(C)C1CCC2C3C(O)CC4CC(NC(=O)CCC(=O)NCCCCC(N)C(=O)Nc5ccccc5C(Nc5ccccn5)C(c5ccccn5)C(O)c5ccccc5)CCC4(C)C3CC(O)C12C` (centres unmarked) [Example 9] was tested. Which “IC5ONa -TCDC (μmol)/ IC50Na” value did it give?
A: 2.02

Q: With `CC(CCC(=O)NCC(=O)O)C1CCC2C3C(O)CC4CC(NC(=O)CCC(=O)NC(CCCCNC(=O)OC(C)(C)C)C(=O)Nc5ccccc5C(Nc5ccccn5)C(c5ccccn5)C(O)c5ccccc5)CCC4(C)C3CC(O)C12C` (centres unmarked) [Example 14] as the compound, how does the “IC5ONa -TCDC (μmol)/ IC50Na” value read?
A: 1.52

Q: Which “IC5ONa -TCDC (μmol)/ IC50Na” value does the source give for `COC(=O)CCC(C)C1CCC2C3C(O)CC4CC(NC(=O)CCC(=O)NC(Cc5ccccc5)C(=O)N5CCCC5C(=O)Nc5ccccc5C(Nc5ccccn5)C(c5ccccn5)C(O)c5ccccc5)CCC4(C)C3CC(O)C12C` (centres unmarked) [Example 2d] here?
A: 0.56

Q: With `CC(CCC(=O)O)C1CCC2C3C(O)CC4CC(NC(=O)CCC(=O)NCCCCC(N)C(=O)Nc5ccccc5C(Nc5ccccn5)C(c5ccccn5)C(O)c5ccccc5)CCC4(C)C3CC(O)C12C` (centres unmarked) [Example 10] as the compound, how does the “IC5ONa -TCDC (μmol)/ IC50Na” value read?
A: 1.63

Q: Which “IC5ONa -TCDC (μmol)/ IC50Na” value does the source give for `CC(CCC(=O)O)C1CC[C@H]2[C@@H]3[C@H](O)C[C@@H]4C[C@@H](NC(=O)CCC(=O)Nc5ccccc5C(Nc5ccccn5)C(c5ccccn5)C(O)c5ccccc5)CC[C@]4(C)[C@H]3C[C@H](O)[C@]12C` (some centres unmarked) [Example 8] here?
A: 0.91

Q: How did the “IC5ONa -TCDC (μmol)/ IC50Na” value turn out when `CC(CCC(=O)O)C1CCC2C3C(O)CC4CC(NC(=O)CCC(=O)NC(Cc5ccccc5)C(=O)N5CCCC5C(=O)Nc5ccccc5C(Nc5ccccn5)C(c5ccccn5)C(O)c5ccccc5)CCC4(C)C3CC(O)C12C` (centres unmarked) [Example 2e] was run?
A: 1.96
